pEC50: −log10 of the molar value. Numbered stars: 1 amine (or outer) side, 2 acyl side, 3 side chain; on linkers, the order of the positions; unused ones are H or OH. Bridge positions count the residues as written; N and C are the ends. Square brackets hold non-standard residues; d marks the D form. Peptide text beside a SMILES is read from it. * marks the point of attachment. C20 diacid = O=C(O)CCCCCCCCCCCCCCCCCCC(=O)*; γGlu = O=C(O)[C@H](CCC(=O)[*:2])N[*:1]; Hyp = O=C(O)[C@@H]1C[C@@H](O)CN1; NMeI = CC[C@H](C)[C@H](NC)C(=O)O; Aad = N[C@@H](CCCC(=O)O)C(=O)O; hLys = NCCCCC[C@H](N)C(=O)O; Sar = CNCC(=O)O
Columns and labels:
[1] = target: T1, recombinant human calcitonin receptor (hCT-R) (Homo sapiens, UniProt P30988); assay: hCT-R cAMP assay (AlphaScreen) in 1321N1 cells; type: cell-based; conditions: cAMP formation, 45 min stimulation
T1 construct: host or cells: human astrocytoma cell line 1321N1
T1 sequence (P30988 25-474): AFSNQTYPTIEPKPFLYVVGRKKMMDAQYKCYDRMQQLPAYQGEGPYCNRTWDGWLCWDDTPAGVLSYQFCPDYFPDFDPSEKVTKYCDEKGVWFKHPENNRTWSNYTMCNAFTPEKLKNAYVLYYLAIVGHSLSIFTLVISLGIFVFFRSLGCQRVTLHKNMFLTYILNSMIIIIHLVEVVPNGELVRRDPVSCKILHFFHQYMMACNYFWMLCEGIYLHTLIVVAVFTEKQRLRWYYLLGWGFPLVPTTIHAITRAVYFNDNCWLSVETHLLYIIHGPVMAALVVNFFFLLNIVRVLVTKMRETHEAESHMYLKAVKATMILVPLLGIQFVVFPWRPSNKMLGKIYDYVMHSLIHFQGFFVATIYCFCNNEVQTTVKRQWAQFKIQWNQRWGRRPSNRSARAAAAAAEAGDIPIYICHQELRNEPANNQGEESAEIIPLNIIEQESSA
How it was run: (§1)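 1321N1 astrocytoma cells expressing recombinant human calcitonin receptor alone or with RAMP3 (AMY3) stimulated 45 min at room temperature with peptide in IBMX-containing buffer. cAMP quantified by AlphaScreen after 1 h bead incubation; EC50 fitted from at least 7 concentrations.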

[2] = target: T2, recombinant human amylin 3 receptor (hAMYR3) (Homo sapiens, UniProt O60896+P30988); assay: hAMYR3 cAMP assay (AlphaScreen) in 1321N1 cells; type: cell-based; conditions: cAMP formation, 45 min stimulation
T2 construct: host or cells: human astrocytoma cell line 1321N1
T2 sequence (P30988 25-474): T1 sequence (P30988 25-474)
T2 sequence (O60896 24-148 partner): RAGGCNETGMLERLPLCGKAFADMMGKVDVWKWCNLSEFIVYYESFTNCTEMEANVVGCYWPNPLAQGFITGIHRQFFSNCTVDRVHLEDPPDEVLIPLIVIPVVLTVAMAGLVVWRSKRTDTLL
How it was run: as §1

[3] = Chemical stability, alternative analysis in MilliQ water with pH adjusted, 40° C. (RP-HPLC); type: physicochemical
Procedure: In an alternative analysis, peptides were dissolved in MilliQ water and pH adjusted to 4.0, 7.5 or 9.0. Samples were placed in glass vials and incubated at 40° C. The samples were analyzed by RP-HPLC on a C8 column with gradient elution using a trifluoroacetic acid/acetonitrile/water eluent system. The area-percentage (area-%) of the main peak was determined by UV spectroscopy at 220 nm at each sampling time point.
The % degradation was calculated by subtracting the […].
The results of the chemical stability assessment after 8 days of incubation time are summarized as % degradation in Table 3 (below).

[4] = Assessment of physical stability: fibril formation by Thioflavin T fluorescence; type: physicochemical; set-up: key: FND = fibrillation not detected; FD = fibrillation detected; conditions: 1 mg/mL peptide; for Fibrillation (in buffer) pH4 acetate: 50 mM acetate buffer pH 4.0, 96 hours at 40° C.; for Fibrillation (in buffer) pH7 histidine: 50 mM histidine buffer pH 7.0, 96 hours at 40° C.; for Fibrillation (in buffer) pH7 phosphate: 50 mM phosphate buffer pH 7.0, 96 hours at 40° C.
How it was run: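 Test peptide at 1 mg/mL with 40 μM ThT in 50 mM phosphate pH 7.0, 50 mM histidine pH 7.0, or 50 mM acetate pH 4.0, in triplicate. Fluorescence read every 10 min after 300 s agitation for 96 hours at 40° C; significant intensity rise scored as fibrillation detected (FD).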

[5] = Assessment of chemical stability in 40 mM buffers at 40° C. (RP-HPLC); type: physicochemical; conditions: 1 mg/mL; for % degradation after 72 h at 40° C. pH6 phosphate: phosphate buffer pH 6, 72 h; for % degradation after 72 h at 40° C. pH7 phosphate: phosphate buffer pH 7, 72 h; for % degradation after 72 h at 40° C. pH4 acetate: acetate buffer pH 4, 72 h
How it was run: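 Peptides at 1 mg/mL in 40 mM acetate pH 4 or phosphate pH 6 and 7 were held at 40° C for 3 and 14 days. Main-peak area-% by C8 RP-HPLC, UV 220 nm; % degradation = change in main-peak area-% versus t=0.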

[6] = Effect on acute food intake and body weight in normal Sprague Dawley rats; type: in vivo, Sprague Dawley (SD) rats; conditions: Dose: 30 nmol/kg sc, vehicle-corrected
Text: Sprague Dawley (SD) rats were obtained from Janvier Labs, France. The animals arrived at least 14 days before the study start to allow acclimatization to experimental conditions. From arrival and throughout the study, the rats were housed in groups of 2 to 4 (n=2-4) in a light-, temperature- and humidity-controlled room. Animals had access ad libitum to food (KLIBA 3430, Provimi Kliba AG, Switzerland) and water (domestic quality tap water) during the entire study. Per group 6-8 rats were included. A vehicle group and positive control group were included in each set of tests. […] Dosing volume was 2 ml/kg. Food intake was recorded online using an automated food intake system (HM02, MBRose, Denmark) for 4 days or manually at 0 h for a predose and then 24, 48, 72 and 96 h post dosing. Body weight was measured daily.
Statistical analyses were performed using GraphPad™ Prism version 7. The measured parameters were compared using two-way ANOVA followed by Dunnett's multiple comparison tests. Differences were considered statistically significant at p<0.05.

Row | SMILES | pEC50 [1] | pEC50 [2] | % degradation after 8 days at 40° C. pH4 ([3]; pH adjusted to 4.0, 8 days) [%] | % degradation after 8 days at 40° C. pH7.5 ([3]; pH adjusted to 7.5, 8 days) [%] | % degradation after 8 days at 40° C. pH9 ([3]; pH adjusted to 9.0, 8 days) [%] | Fibrillation (in buffer) pH4 acetate [4] | Fibrillation (in buffer) pH7 histidine [4] | Fibrillation (in buffer) pH7 phosphate [4] | % degradation after 72 h at 40° C. pH6 phosphate [5] [%] | % degradation after 14 days at 40° C. pH6 phosphate ([5]; phosphate buffer pH 6, 14 days) [%] | % degradation after 72 h at 40° C. pH7 phosphate [5] [%] | % degradation after 14 days at 40° C. pH7 phosphate ([5]; phosphate buffer pH 7, 14 days) [%] | Body weight reduction in % at 48 h [6] [%] | Food intake reduction in % at 48 h [6] [%] | % degradation after 72 h at 40° C. pH4 acetate [5] [%]
1 | CC[C@H](C)[C@@H](C(=O)N[C@@H](CC(C)C)C(=O)N[C@@H](CO)C(=O)N[C@@H](CO)C(=O)N[C@H](C(=O)N[C@@H](CCC(=O)O)C(=O)N[C@H](C(=O)NCC(=O)N[C@@H](CO)C(=O)N[C@@H](CC(N)=O)C(=O)N[C@H](C(=O)N1C[C@H](O)C[C@H]1C(N)=O)[C@@H](C)O)C(C)C)[C@@H](C)O)N(C)C(=O)[C@H](C)NC(=O)CN(C)C(=O)[C@H](Cc1ccccc1)NC(=O)[C@H](CO)NC(=O)[C@H](CO)NC(=O)[C@H](CCCNC(=N)N)NC(=O)[C@H](CCC(N)=O)NC(=O)[C@H](CC(C)C)NC(=O)[C@H](Cc1ccccc1)NC(=O)[C@H](Cc1c[nH]cn1)NC(=O)[C@H](C)NC(=O)[C@H](CC(C)C)NC(=O)[C@H](CCCNC(=N)N)NC(=O)[C@H](CCC(=O)O)NC(=O)[C@@H](NC(=O)[C@H](C)NC(=O)[C@@H]1CCCCCNC(=O)C[C@H](NC(=O)[C@H](CCCNC(=N)N)NC(=O)CC[C@H](NC(=O)CCCCCCCCCCCCCCCCCCC(=O)O)C(=O)O)C(=O)NCC(=O)N[C@@H]([C@@H](C)O)C(=O)N[C@@H](C)C(=O)N[C@@H]([C@@H](C)O)C(=O)N1)[C@@H](C)O [Compound 19, [19CD]-isoGlu-RD()GTAT-hLys()-ATERLAHFLQRSSF-Gly(Me)-A-Ile(Me)-LSSTEVGSNT-Hyp-NH2] ({C20 diacid-γGlu}-RDGTAT[hLys]ATERLAHFLQRSSF[Sar]A[NMeI]LSSTEVGSNT[Hyp]-NH2; lactam 2-7) | 10.55 | 11.22 | 3.9 | 6.2 | 4.2 |  |  |  |  |  |  |  |  |  | 
2 | CC[C@H](C)[C@@H](C(=O)N[C@@H](CC(C)C)C(=O)N[C@@H](CO)C(=O)N[C@@H](CO)C(=O)N[C@H](C(=O)N[C@@H](CCC(=O)O)C(=O)N[C@H](C(=O)NCC(=O)N[C@@H](CO)C(=O)N[C@@H](CC(N)=O)C(=O)N[C@H](C(=O)N1C[C@H](O)C[C@H]1C(N)=O)[C@@H](C)O)C(C)C)[C@@H](C)O)N(C)C(=O)[C@H](C)NC(=O)CN(C)C(=O)[C@H](Cc1ccccc1)NC(=O)[C@H](CO)NC(=O)[C@H](CO)NC(=O)[C@H](CCCNC(=N)N)NC(=O)[C@H](CCC(N)=O)NC(=O)[C@H](CC(C)C)NC(=O)[C@H](Cc1ccccc1)NC(=O)[C@H](CCCC(=O)O)NC(=O)[C@H](C)NC(=O)[C@H](CC(C)C)NC(=O)[C@H](CCCNC(=N)N)NC(=O)[C@H](CCC(=O)O)NC(=O)[C@@H](NC(=O)[C@H](C)NC(=O)[C@@H]1CCCCNC(=O)C[C@H](NC(=O)[C@H](CCC(=O)O)NC(=O)CC[C@H](NC(=O)CCCCCCCCCCCCCCCCCCC(=O)O)C(=O)O)C(=O)NCC(=O)N[C@@H]([C@@H](C)O)C(=O)N[C@@H](C)C(=O)N[C@@H]([C@@H](C)O)C(=O)N1)[C@@H](C)O [Compound 37, [19CD]-isoGlu-ED()GTATK()ATERLA-Aad-FLQRSSFGly(Me)-A-Ile(Me)-LSSTEVGSNT-Hyp-NH2] ({C20 diacid-γGlu}-EDGTATKATERLA[Aad]FLQRSSF[Sar]A[NMeI]LSSTEVGSNT[Hyp]-NH2; lactam 2-7) | 9.94 | 10.51 |  |  |  | FD | FND | FND | <1 | <1 | 3.0 | <1 | 4.3 | 24 | 
3 | CC[C@H](C)[C@@H](C(=O)N[C@@H](CC(C)C)C(=O)N[C@@H](CO)C(=O)N[C@@H](CO)C(=O)N[C@H](C(=O)N[C@@H](CCC(=O)O)C(=O)N[C@H](C(=O)NCC(=O)N[C@@H](CO)C(=O)N[C@@H](CC(N)=O)C(=O)N[C@H](C(=O)N1C[C@H](O)C[C@H]1C(N)=O)[C@@H](C)O)C(C)C)[C@@H](C)O)N(C)C(=O)[C@H](C)NC(=O)CN(C)C(=O)[C@H](Cc1ccccc1)NC(=O)[C@H](CO)NC(=O)[C@H](CO)NC(=O)[C@H](CCCNC(=N)N)NC(=O)[C@H](CCC(N)=O)NC(=O)[C@H](CC(C)C)NC(=O)[C@H](Cc1ccccc1)NC(=O)[C@H](CCCC(=O)O)NC(=O)[C@H](C)NC(=O)[C@H](CC(C)C)NC(=O)[C@H](CCCNC(=N)N)NC(=O)[C@H](CCC(N)=O)NC(=O)[C@@H](NC(=O)[C@H](C)NC(=O)[C@@H]1CCCCNC(=O)C[C@H](NC(=O)[C@H](CCCCN)NC(=O)CC[C@H](NC(=O)CCCCCCCCCCCCCCCCCCC(=O)O)C(=O)O)C(=O)NCC(=O)N[C@@H]([C@@H](C)O)C(=O)N[C@@H](C)C(=O)N[C@@H]([C@@H](C)O)C(=O)N1)[C@@H](C)O [Compound 39, [19CD]-isoGlu-KD()GTATK()ATQRLA-Aad-FLQRSSF-Gly(Me)-Alle(Me)-LSSTEVGSNTHyp-NH2] ({C20 diacid-γGlu}-KDGTATKATQRLA[Aad]FLQRSSF[Sar]A[NMeI]LSSTEVGSNT[Hyp]-NH2; lactam 2-7) | 10.03 | 10.62 |  |  |  | FD | FND | FND | <1 |  | <1 |  | 9.2 | 76 | <1
4 | CC[C@H](C)[C@@H](C(=O)N[C@@H](CC(C)C)C(=O)N[C@@H](CO)C(=O)N[C@@H](CO)C(=O)N[C@H](C(=O)N[C@@H](CCC(=O)O)C(=O)N[C@H](C(=O)NCC(=O)N[C@@H](CO)C(=O)N[C@@H](CC(N)=O)C(=O)N[C@H](C(=O)N1C[C@H](O)C[C@H]1C(N)=O)[C@@H](C)O)C(C)C)[C@@H](C)O)N(C)C(=O)[C@H](C)NC(=O)CN(C)C(=O)[C@H](Cc1ccccc1)NC(=O)[C@H](CO)NC(=O)[C@H](CO)NC(=O)[C@H](CCCNC(=N)N)NC(=O)[C@H](CCC(N)=O)NC(=O)[C@H](CC(C)C)NC(=O)[C@H](Cc1ccccc1)NC(=O)[C@H](CCCC(=O)O)NC(=O)[C@H](C)NC(=O)[C@H](CC(C)C)NC(=O)[C@H](CCCNC(=N)N)NC(=O)[C@H](CCC(N)=O)NC(=O)[C@@H](NC(=O)[C@H](C)NC(=O)[C@@H]1CCCCNC(=O)C[C@H](NC(=O)[C@H](CCCNC(=N)N)NC(=O)CC[C@H](NC(=O)CCCCCCCCCCCCCCCCCCC(=O)O)C(=O)O)C(=O)NCC(=O)N[C@@H]([C@@H](C)O)C(=O)N[C@@H](C)C(=O)N[C@@H]([C@@H](C)O)C(=O)N1)[C@@H](C)O [Compound 40, [19CD]-isoGlu-RD()GTATK()ATQRLA-Aad-FLQRSSF-Gly(Me)-A-Ile(Me)-LSSTEVGSNT-Hyp-NH2] ({C20 diacid-γGlu}-RDGTATKATQRLA[Aad]FLQRSSF[Sar]A[NMeI]LSSTEVGSNT[Hyp]-NH2; lactam 2-7) | 10.55 | 11.10 |  |  |  | FD | FND | FND | <1 |  | <1 |  | 7.3 | 83 | 1.1

From patent publication US11382956B2, “Amylin analogues” (Zealand Pharma A/S, priority 2016, dated 2022)
